Assay type in all cases: cell-based
The subject of experiment [1] is Citrobacter freundii (AmpC). Kind of experiment: microbe, parasite or virus in culture. Conditions: Citrobacter freundii.
Experiment [2] deals with Enterobacteriaceae. Kind of experiment: organism not typed.
Experiment [3] relates to Klebsiella spp. (ESBL). Kind of experiment: microbe, parasite or virus in culture. Conditions: Klebsiella.
The subject of experiment [4] is Morganella morganii (AmpC). Kind of experiment: microbe, parasite or virus in culture. To be noted: Morganella morganii.
The subject of experiment [5] is E. coli (WT). Kind of experiment: microbe, parasite or virus in culture. To be noted: for MIC90: Escherichia coli.
The subject of experiment [6] is Klebsiella spp. (KPC). Kind of experiment: microbe, parasite or virus in culture. Conditions: Klebsiella.
For experiment [7], the system named is Enterobacter aerogenes (AmpC). Kind of experiment: microbe, parasite or virus in culture. Conditions: Klebsiella aerogenes.
Experiment [8] has as its system Providencia spp.(all). Kind of experiment: microbe, parasite or virus in culture.
For experiment [9], the system named is S. marcescens (AmpC). Kind of experiment: microbe, parasite or virus in culture. To be noted: Serratia marcescens.
In experiment [10] the test system is Proteus mirabilis (WT). Kind of experiment: microbe, parasite or virus in culture.
For experiment [11], the system named is Klebsiella spp. (WT). Kind of experiment: microbe, parasite or virus in culture.
Experiment [12] deals with Enterobacter aerogenes (WT). Kind of experiment: microbe, parasite or virus in culture. To be noted: for MIC90: Klebsiella aerogenes.
Experiment [13] concerns E. coli (ESBL). Kind of experiment: microbe, parasite or virus in culture. Conditions: Escherichia coli.
Experiment [14] deals with Proteus vulgaris (WT). Kind of experiment: microbe, parasite or virus in culture.
Experiment [15] concerns P. aeruginosa. Kind of experiment: In vitro activity against P. aeruginosa clinical isolates. On the procedure:
GSK2251052 was tested for activity against P. aeruginosa, and its activity was compared to other antibiotics of known activity. The results are shown below in Tables 2a and 2b. Of 2,008 clinical isolates tested (from 2009-2010 subjects, of which 40% were from North America) greater than 90% were susceptible to GSK2251052 based on a potential susceptible breakpoint of ≦4 μg/mL.

In experiment [16] the test system is P. aeruginosa ATCC 27853 wild type and mutants. Kind of experiment: MIC in M9 minimal media. To be noted: Pseudomonas aeruginosa, read-out: MICs in M9 minimal media. The protocol: (§1) Spontaneous Resistance Frequency was determined in vitro for GSK2251052 and the resistance mutants in E. coli ATCC 25922, K. pneumoniae ATCC 13883, and P. aeruginosa ATCC 27853 strains were characterized. GSK2251052 was prepared as described in U.S. Pat. No. 7,816,344 (the entire contents of which are hereby incorporated by reference herein). LB broth, Mueller Hinton II broth (adjusted), and Difco noble agar were obtained from Becton Dickinson (Cockeysville, Md., USA). M9 minimal broth containing 1×M9 salt, 0.5 μg/ML thiamine, 1 mM MgSO4, 0.1 mM CaCl2, 2% glucose, was obtained from Teknova (Hollister, Calif., USA). Antibacterial agents ciprofloxacin, ceftazidime, chloramphenicol, gentamycin, kanamycin, polymixin B, tobramycin and trimethoprim, and amino acids were obtained from Sigma Chemicals (St. Louis, Mo., USA). Strains were obtained from ATCC (Manassas, Va., USA).
(§2) Susceptibility tests were performed following the recommendations for aerobic bacteria (M7-A7) from the Clinical and Laboratories Standards Institute (CLSI).
(§3) The aminoacyl-tRNA synthetase enzyme, LeuRS, ensures the correct amino acid, leucine, is attached to tRNA^Leu. The LeuRS synthetic active site is capable of aminoacylating tRNA^Leu with amino acids structural similar to leucine (norvaline, norleucine, isoleucine and methionine). These mischarged tRNA^Leu are hydrolyzed by the editing domain, thus preventing the deleterious incorporation of incorrect amino acids into the growing polypeptide. The laboratory generated mutants were further tested for their ability to grow in defined media with exogenously added amino acids. Norvaline and norleucine, structurally similar to leucine, were tested in M9 minimal media. […]

The subject of experiment [17] is E. coli ATCC 25922 wild type and mutants. Kind of experiment: MIC in M9 minimal media. Conditions: Escherichia coli, read-out: MICs in M9 minimal media. The protocol: as §1, §2, §3
Experiment [18] deals with K. pneumoniae ATCC 13883 wild type and mutants. Kind of experiment: MIC in M9 minimal media. To be noted: Klebsiella pneumoniae, read-out: MICs in M9 minimal media. On the procedure:
as §1, §2, §3

Experiment [19] concerns Escherichia coli 1161435 parent and mutant strains B4, B26 and B35. Kind of experiment: Sensitivity to leucine analogs in MH and M9 media.
In experiment [20] the test system is Enterobacter cloacae (WT). Kind of experiment: microbe, parasite or virus in culture. Conditions: 202 isolates, read-out: MIC90.
Experiment [21] has as its system Enterobacter cloacae (AmpC). Kind of experiment: microbe, parasite or virus in culture. To be noted: Enterobacter cloacae.
The test system of experiment [22] is P. aeruginosa ATCC 27853. Kind of experiment: Spontaneous frequency of resistance. Conditions: 24 h. The protocol:
as §1
(§4) Selection of resistance to GSK2251052 was attempted by spreading various amounts of bacteria onto MHBII noble agar plates containing 4×MIC (minimum inhibitory concentration) or 10×MIC of GSK2251052. Colonies were counted after 24 hours and 48 hours incubation at 37° C. The resistance of these colonies was confirmed by their ability to grow on plates containing GSK2251052 at either 4× or 10×MIC. Frequency of resistance was determined by dividing the number of resistant mutants by the total number of cells plated as determined by plating dilutions of the overnight culture on LB plates.

Experiment [23] concerns E. coli ATCC 25922. Kind of experiment: Spontaneous frequency of resistance. To be noted: 24 h. The protocol:
as §1, §4

In experiment [24] the test system is K. pneumoniae ATCC 13883. Kind of experiment: Spontaneous frequency of resistance. Conditions: 24 h. The protocol: as §1, §4
Where [25] appears, read: Enterobacteriaceae, 2029 isolates, read-out: MIC90.
The mark [26] stands for this setting: E. coli (WT), 214 isolates, read-out: MIC90.
Where [27] appears, read: Providencia spp.(all), 68 isolates, read-out: MIC90.
The mark [28] stands for this setting: Proteus mirabilis (WT), 235 isolates, read-out: MIC90.
Setting [29] is: Klebsiella spp. (WT), 159 isolates, read-out: MIC90.
[30] abbreviates: Enterobacter aerogenes (WT), 199 isolates, read-out: MIC90.
Where [31] appears, read: Proteus vulgaris (WT), 41 isolates, read-out: MIC90.
Where [32] appears, read: P. aeruginosa, 2,008 clinical isolates, GSK2251052 based on potential susceptible breakpoint of ≦4 μg/mL.

In brackets after ≈: the same amount, converted by molar mass. Where two headings read alike, the source gives them in different places. A value given as a limit tells only on which side of the number the result lay.

`CO/N=C(\C(=O)N[C@@H]1C(=O)N2C(C(=O)[O-])=C(C[N+]3(C)CCCC3)CS[C@H]12)c1csc(N)n1` [Cefepime]: the MIC90 is 16 µg/mL (≈ 33.3 µM) in experiment [1]; 4 µg/mL (≈ 8.32 µM) in experiment [2] (setting [25]); > 32 µg/mL in experiment [3]; > 32 µg/mL in [4]; ≤ 1 µg/mL in experiment [5] (setting [26]); > 32 µg/mL in [6]. The MIC90 is 8 µg/mL (≈ 16.6 µM) in experiment [7]; > 32 µg/mL in [8] (setting [27]); 8 µg/mL (≈ 16.6 µM) in [9]; ≤ 1 µg/mL in experiment [10] (setting [28]); ≤ 1 µg/mL in experiment [11] (setting [29]); ≤ 1 µg/mL in experiment [12] (setting [30]). The MIC90 is > 32 µg/mL in experiment [13] and ≤ 1 µg/mL in experiment [14] (setting [31]). Besides, the “% susceptible” value in [15] (setting [32]) was found to be 75.3%.

On to `CCCC[C@H](N)C(=O)O` [Norleucine, L-Norleucine], for which the MIC in experiment [16] (ATCC27853, P 101 (leuRS T256P)) is > 64 µg/mL; in [16] (ATCC27853, P 106 (leuRS V342M)) it was > 64 µg/mL; in experiment [16] (ATCC27853, P 108 (leuRS T252P)) it was > 64 µg/mL; in experiment [16] (ATCC27853, P. aeruginosa ATCC27853), > 64 µg/mL; in experiment [17] (ATCC25922, E 101(leuRS Y246H)), 2 µg/mL (≈ 15.2 µM); in experiment [17] (ATCC25922, E 102(leuRS D345G)) it was 4 µg/mL (≈ 30.5 µM). Further, the MIC in experiment [17] (ATCC25922, E 107(leuRS G229S)) stood at 4 µg/mL (≈ 30.5 µM); in experiment [17] (ATCC25922, E. coli ATCC25922), 4 µg/mL (≈ 30.5 µM); in experiment [18] (ATCC13883, K 104(leuRS D345Y)), 16 µg/mL (≈ 122 µM); in experiment [18] (ATCC13883, K 105(leuRS G229R)), 32 µg/mL (≈ 244 µM); in experiment [18] (ATCC13883, K 107(leuRS S227F)), 64 µg/mL (≈ 488 µM); in experiment [18] (ATCC13883, K 108(leuRS T248P)), 64 µg/mL (≈ 488 µM). Besides, the MIC was > 64 µg/mL in experiment [18] (ATCC13883, K 110(leuRS V338L)) and 32 µg/mL (≈ 244 µM) in experiment [18] (ATCC13883, Klebsiella pneumoniae ATCC13883). The MIC (sensitivity to leucine analogs) in experiment [19] (1161435 Parent, M9) is 32 µg/mL; in experiment [19] (1161435 Parent, MH), > 128 µg/mL; in experiment [19] (B4 (P339L), M9), 16 µg/mL; in experiment [19] (B4 (P339L), MH), > 128 µg/mL; in [19] (B26 (R334H), M9), 8 µg/mL; in experiment [19] (B26 (R334H), MH), > 128 µg/mL. For the same compound, the MIC (sensitivity to leucine analogs) is 16 µg/mL in experiment [19] (B35 (D251N), M9) and > 128 µg/mL in [19] (B35 (D251N), MH). For the same compound, the “sensitivity of the mutants” value in [19] (mutant strains in M9 minimal media) is reported as “some sensitivity”.

As to `C[C@@H](O)[C@H]1C(=O)N2C(C(=O)O)=C(SCCN=CN)C[C@H]12` [Imipenem], the MIC90 in experiment [1] is 1 µg/mL (≈ 3.34 µM); in experiment [20], 1 µg/mL (≈ 3.34 µM); in experiment [2] it was 2 µg/mL (≈ 6.68 µM); in [3], 0.5 µg/mL (≈ 1.67 µM); in [4], 4 µg/mL (≈ 13.4 µM); in [21] it was 1 µg/mL (≈ 3.34 µM). Further, the MIC90 in experiment [5] worked out at 0.25 µg/mL (≈ 0.835 µM); in experiment [6], 64 µg/mL (≈ 214 µM); in experiment [7], 2 µg/mL (≈ 6.68 µM); in experiment [8] (Providencia), 2 µg/mL (≈ 6.68 µM); in [9] it was 2 µg/mL (≈ 6.68 µM); in experiment [10] (Proteus mirabilis), 4 µg/mL (≈ 13.4 µM). The MIC90 came out at 0.25 µg/mL (≈ 0.835 µM) in experiment [11] (Klebsiella), 2 µg/mL (≈ 6.68 µM) in experiment [12], 0.5 µg/mL (≈ 1.67 µM) in experiment [13] and 4 µg/mL (≈ 13.4 µM) in experiment [14] (Proteus vulgaris). Further, the “susceptibility category of MIC90” value was “**2” in [2]; “*0.25” in experiment [5]; “**2” in experiment [8]; “***4” in experiment [10]; “*0.25” in [11]; “**2” in experiment [12]. Moreover, the “susceptibility category of MIC90” value in experiment [14] is given as “***4”. Also, in experiment [15], the “% susceptible” value came out at 72.9%.

`C[C@@H](O)[C@H]1C(=O)N2C(C(=O)O)=C(S[C@@H]3CN[C@H](C(=O)N(C)C)C3)[C@H](C)[C@H]12` [Meropenem]: the “Frequency of Resistance” value in [22] (4 X MIC) is reported as 7 × 10^−7; in experiment [22] (10 X MIC), <1 × 10^−9; in experiment [23] (4 X MIC), <4 × 10^−9; in experiment [23] (10 X MIC), <4 × 10^−9; in experiment [24] (4 X MIC), <3 × 10^−9; in [24] (10 X MIC), <3 × 10^−9. Further, the “% susceptible” value in experiment [15] (setting [32]) is listed as 79.3%.

For `CC1(C)S[C@@H]2[C@H](NC(=O)[C@H](N)c3ccccc3)C(=O)N2[C@H]1C(=O)O` [Ampicillin], the MIC90 in experiment [1], in experiment [20], in experiment [2] (setting [25]), in experiment [3], in [4] and in experiment [21] was > 64 µg/mL throughout. For the same compound, the MIC90 in [5] (setting [26]), in experiment [6], in experiment [7], in experiment [8] (setting [27]), in [9] and in [10] (setting [28]) was > 64 µg/mL in each case. Further, the MIC90 in experiment [11] (setting [29]), in [12] (setting [30]), in experiment [13] and in [14] (setting [31]) was > 64 µg/mL in each case.

Values taken from patent US9889146B2, “Benzoxaborole compounds and uses thereof” (priority 2012, dated 2018).
